- melting point: 108 to 109 °C
SMILES: C(=C\c1nc(COc2ccc(CCCn3cncn3)cc2)co1)/c1ccccc1 [Reference Example 3, 1-[3-[4-[2-[(E)-2-phenylethenyl]-4-oxazolylmethoxy]phenyl]propyl]-1,2,4-triazole]

— patent publication US20060135435A1, “Agent that retards transformation of hormone-dependent cancer to non-hormone-dependent cancer” (priority 1998, published 2006)
